# Assay results taken from article PMC3086468 (Journal of medicinal chemistry, 2011).
# Where two headings read alike, the source gives them in different places.
# Columns and labels:
# LYP = target: T1, LYP (Homo sapiens, UniProt Q9Y2R2); assay type: biochemical
# T1 sequence (Q9Y2R2 2-309): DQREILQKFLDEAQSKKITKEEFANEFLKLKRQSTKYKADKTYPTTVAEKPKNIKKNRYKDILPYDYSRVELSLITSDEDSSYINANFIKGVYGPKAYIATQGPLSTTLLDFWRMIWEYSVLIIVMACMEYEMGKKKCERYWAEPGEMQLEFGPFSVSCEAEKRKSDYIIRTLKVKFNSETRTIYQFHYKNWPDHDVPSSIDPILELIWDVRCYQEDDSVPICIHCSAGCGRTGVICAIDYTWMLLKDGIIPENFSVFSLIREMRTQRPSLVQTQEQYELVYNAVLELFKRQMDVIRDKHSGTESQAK
# JTAg cells = experiment: TCR signaling in JTAg cells, Western blot; assay type: cell-based, human; details: for TCR-induced phosphorylation of Lck at Y394: 50 μM compound, C305 stimulation 2 min, anti-pSrc(Y416) blot
# Pep = experiment: Lck Y394 phosphorylation in Ptpn22+/+ and Ptpn22−/− mouse T cells; assay type: cell-based; details: 50 μM, stimulated with anti-CD3 and anti-CD4
# primary human T cells = experiment: TCR-induced phosphorylation in primary human T cells; assay type: cell-based; details: 50 μM, anti-CD3/anti-CD28 1 min
smiles,measurement,setting,value
Cc1ccc2[nH]c(=O)c(C(c3nnnn3C3CCCC3)N(Cc3ccccc3)Cc3ccc(Cl)cc3)cc2c1 (centres unmarked) [Compound 4g],dual inhibition plot vs compound 13,"LYP; 13.72 μM pY peptide, 25 nM LYP",converging lines
same,α,"LYP; mixed model inhibition fit, pY peptide, pH 6.0, 37 °C",2.96 ± 2.48
same,relationship between IC50 and substrate concentration,"LYP; pY peptide, 25 nM LYP",independent from substrate concentration
O=C(CSc1nc(C2CC2)nc2sc3c(c12)CCCC3)NCc1ccc2c(c1)OCO2 [Compound 6],TCR-induced phosphorylation of Lck at Y394,JTAg cells; JTAg cells,lack of activity
CCc1cccc(C)c1NC(=O)CSc1nc2c(C)ccc(C)c2cc1C#N [Compound 2],phosphorylation of Lck at Y505,JTAg cells; JTAg cells treated with compound (data not shown),unable to detect increased phosphorylation of Lck at Y505
same,TCR-induced phosphorylation of Lck at Y394,JTAg cells; JTAg cells,lack of activity
Cc1ccc2[nH]c(=O)c(C(c3nnnn3C3CCCC3)N3CCCC4(CCCCC4)C3)cc2c1 (centres unmarked) [Compound 4],ERK1/2 phosphorylation,"JTAg cells; JTAg cells, 50 μM, C305 2 min",increased ERK1/2 phosphorylation
same,TCR-stimulated phosphorylation of ZAP70,"JTAg cells; JTAg cells, 50 μM, C305 2 min",increased TCR-stimulated phosphorylation of ZAP70
same,"Lck phosphorylation at Y394, wild type (Ptpn22+/+) T cells",Pep,increased Lck phosphorylation at Y394
same,"Lck phosphorylation, Ptpn22−/− T cells",Pep,no effect on phosphorylation of Lck
same,"TCR-induced phosphorylation of Lck, ZAP70 and LAT",primary human T cells,"equally able to boost TCR-induced phosphorylation of Lck, ZAP70, and linker for activation of T cells (LAT)"
CCOc1ccc2nc(NC(=O)CSc3nc4sc(C)c(C)c4c(=O)[nH]3)sc2c1 [Compound 1],TCR-induced phosphorylation of Lck at Y394,JTAg cells; JTAg cells,lack of activity
Cc1ccc2[nH]c(=O)c(C(c3nnnn3C3CCCC3)N3CCN(C(c4ccccc4)c4ccccc4)CC3)cc2c1 (centres unmarked) [Compound 4f],relationship between IC50 and substrate concentration,LYP,independent from substrate concentration
same,α,LYP; pH 6,1.93 ± 1.27
